This assay deals with T1, S. aureus TrmD (Staphylococcus aureus, UniProt Q2FZ43).
T1 construct: made in house; host or cells: E. coli BL21
T1 sequence (Q2FZ43 1-245): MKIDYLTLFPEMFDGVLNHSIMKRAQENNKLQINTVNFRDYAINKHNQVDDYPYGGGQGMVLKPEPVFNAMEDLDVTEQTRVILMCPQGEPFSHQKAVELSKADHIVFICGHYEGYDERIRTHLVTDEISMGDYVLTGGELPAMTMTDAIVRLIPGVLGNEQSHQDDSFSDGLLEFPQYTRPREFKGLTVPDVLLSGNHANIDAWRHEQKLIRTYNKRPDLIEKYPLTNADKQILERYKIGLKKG
Nature of the assay: nanoSAR direct-to-biology FP displacement screening of crude triazoles. Type of assay: binding. The settings on record: crude triazole at 1 μM, assuming full conversion; 500 nM TrmD, 10 nM tracer 4; read-out: % displaced tracer. The text has this: Next, we conducted an S. aureus TrmD-targeting nanoSAR study. For this, alkyne 7 was reacted on a 96 nmol scale with an in-house diversity-oriented azide library (N = 320, mean pairwise Tanimoto similarity = 0.11) designed to cover a large chemical fragment space, generating a panel of 320 crude triazoles ready for FP assay investigation. The composition of the azide library is designed to be chemically diverse in several categories, including physicochemical properties such as polar surface area, lipophilicity, and the number of hydrogen bond donors and acceptors, as well as structural features like the number of aromatic rings (Figure S23). A complete list of chemical structures included in the azide library can be found in Table S4. In situ reaction conditions for CuAAC were adapted from Gehrtz et al., utilizing CuSO4, which is reduced in situ to Cu(I) by sodium ascorbate and stabilized by TBTA. Degassed water and DMSO (1:1) were used as solvents to prevent the oxidation from Cu(I) to Cu(II). For the synthesis of the triazole library, a master mix was prepared, containing all reaction components except the azides. All reactions were started by the addition of the respective azide in 24 μL at a final product concentration of 4 mM (96 nmol). Reaction mixtures were incubated for 16 h at room temperature and under an argon atmosphere in sealed 96-well plates.
For FP assay screening, we used 500 nM of S. aureus TrmD and 10 nM of tracer 4 in a total volume of 40 μL in 96-well plates. We performed control measurements and defined 10 nM of tracer 4 in buffer as 100% displacement and the DMSO control as 0% tracer displacement. […] The results of the FP screening were visualized in a waterfall plot and plate-based heatmaps (Figure , Figure S3).
Fluorescence polarization (FP) assays were performed as follows. The assays for H. influenzae TrmD have been described previously. All assays were conducted in technical triplicate using black 96-well half area plates. For the FP assays, a tracer (20 nM Cy5TPD for E. coli and H. influenzae TrmD, 10 nM tracer 4 for S. aureus TrmD) was mixed with the respective enzyme (2 μM E. coli TrmD, 2 μM H. influenzae TrmD, 500 nM S. aureus TrmD) in buffer (E. coli and H. influenzae TrmD: 50 mM HEPES, 500 mM NaCl, 5% Glycerol, pH 7.5, S. aureus TrmD: 40 mM Tris HCl, 100 mM NaCl, 10 mM MgCl2, 5% Glycerol, pH 7.5). The compounds were added in varying concentrations for K D-value determination. […] The Z-factor for tracer 4 was determined by measuring 48 replicates of the free tracer (positive controls, PC) and 48 replicates of a mixture of enzyme and tracer (negative controls, NC). The Z-factor is defined in terms of the means (μ) and standard deviations (σ) of the positive and negative controls and calculated as Z = 1–(3*(σnc + σpc)/(μnc–μpc)). […] Polarization values (mP) were determined from polarization-specific parallel and orthogonal fluorescence intensities. K D-values were calculated in GraphPad Prism 8.0.1 using the four-parameter Hill equation: y(% tracer bound) = bottom + ([ligand]-slope) × (top–bottom)/([ligand]-slope + K Dslope).
A commercial azide diversity library (Enamine) containing 320 azides at a concentration of 100 mM in DMSO in a 96-well tube rack was employed for this nanoSAR study. For the reaction of the azides with alkyne 7 via CuAAC, a master mix was prepared. […] The solvents were degassed with argon to avoid oxidation of the copper(I) during the reaction. To each well of a 96-well PCR plate (Applied Biosystems MicroAmp) were added 23 μL of the master mix and 1 μL of the 100 mM azide stock. The final concentrations in the Mastermix were: 8.7 mM sodium ascorbate (8.3 mM in reaction well), 1.1 mM TBTA (1.0 mM in reaction well), 4.3 mM 7 (4.1 mM in reaction well), 1.3 mM CuSO4×5 H2O (1.2 mM in reaction well).

As to `O=c1[nH]cnc2[nH]cc(-c3cn(C[C@H]4OCCOC45CCC5)nn3)c12` [Compound 01D02, O=C1NC=NC=2NC=C(C=3N=NN(C3)C[C@H]4OCCOC45CCC5)C12], the inhibition at 1 µM was determined as 61%. Take `Cc1ccccc1Cn1cc(-c2c[nH]c3nc[nH]c(=O)c23)nn1` [Compound 02G09, O=C1NC=NC=2NC=C(C=3N=NN(C3)Cc4c(cccc4)C)C12]: the inhibition at 1 µM amounted to 75%.

Turning to `O=c1[nH]cnc2[nH]cc(-c3cn([C@@H]4CC[C@H]4F)nn3)c12` [Compound 04C04, F[C@H]1[C@H](N2N=NC(C=3C=4C(=O)NC=NC4NC3)=C2)CC1], the inhibition at 1 µM is 21%. For the compound `C[C@@H]1CNC[C@H]1n1cc(-c2c[nH]c3nc[nH]c(=O)c23)nn1` [Compound 03B12, O=C1NC=NC=2NC=C(C=3N=NN(C3)[C@H]4[C@@H](C[NH2+]C4)C)C12], the inhibition at 1 µM is 19%. For the compound `O=c1[nH]cnc2[nH]cc(-c3cn(Cc4ccncc4)nn3)c12` [Compound 04A04, O=C1NC=NC=2NC=C(C=3N=NN(C3)Cc4ccncc4)C12], the inhibition at 1 µM is 11%. Under `NC(=O)c1csc(Cn2cc(-c3c[nH]c4nc[nH]c(=O)c34)nn2)n1` [Compound 02F07, S1C(=NC(C(=O)N)=C1)CN2N=NC(C=3C=4C(=O)NC=NC4NC3)=C2] stands 91%. Regarding `CCc1nc(C)c(Cn2cc(-c3c[nH]c4nc[nH]c(=O)c34)nn2)o1` [Compound 01G02, O=C1NC=NC=2NC=C(C=3N=NN(C3)CC=4OC(=NC4C)CC)C12], the inhibition at 1 µM was 71%. On to `Nc1ccc(-n2cc(-c3c[nH]c4nc[nH]c(=O)c34)nn2)cc1` [Compound 03D05, O=C1NC=NC=2NC=C(C=3N=NN(c4ccc(N)cc4)C3)C12], for which the inhibition at 1 µM is 2.34%.

Turning to `O=c1[nH]cnc2[nH]cc(-c3cn(-c4cccc5cnccc45)nn3)c12` [Compound 01D05, O=C1NC=NC=2NC=C(C=3N=NN(c4c5c(cncc5)ccc4)C3)C12], the inhibition at 1 µM turned out to be 16%. In the case of `O=c1[nH]cnc2[nH]cc(-c3cn(C[C@H]4COCCO4)nn3)c12` [Compound 03D10, O=C1NC=NC2=C1C(C3=CN(C[C@H]4COCCO4)N=N3)=CN2], the inhibition at 1 µM stood at 57%.

Regarding `N#CC1(Cn2cc(-c3c[nH]c4nc[nH]c(=O)c34)nn2)CCCC1` [Compound 01F01, O=C1NC=NC=2NC=C(C=3N=NN(C3)CC4(C#N)CCCC4)C12], the inhibition at 1 µM was 74%. Under `O=c1[nH]cnc2[nH]cc(-c3cn(-c4cccc5cn[nH]c45)nn3)c12` [Compound 02A05, O=C1NC=NC=2NC=C(C=3N=NN(c4c5NN=Cc5ccc4)C3)C12] stands 1.22%; under `O=c1[nH]cnc2[nH]cc(-c3cn([C@@H]4CCc5c(F)cccc54)nn3)c12` [Compound 03H04, Fc1c2c(ccc1)[C@H](N3N=NC(C=4C=5C(=O)NC=NC5NC4)=C3)CC2], 68%; under `COC(=O)c1cc(-n2cc(-c3c[nH]c4nc[nH]c(=O)c34)nn2)ccn1` [Compound 03F03, O=C(OC)c1nccc(N2N=NC(C=3C=4C(=O)NC=NC4NC3)=C2)c1], 10%. Under `COC(=O)c1sccc1-n1cc(-c2c[nH]c3nc[nH]c(=O)c23)nn1` [Compound 01D11, S1C(C(=O)OC)=C(N2N=NC(C=3C=4C(=O)NC=NC4NC3)=C2)C=C1] stands 21%; under `CC(F)(F)c1cccc(Cn2cc(-c3c[nH]c4nc[nH]c(=O)c34)nn2)n1` [Compound 01H01, FC(F)(c1nc(ccc1)CN2N=NC(C=3C=4C(=O)NC=NC4NC3)=C2)C], 63%; under `NC(=O)C1(n2cc(-c3c[nH]c4nc[nH]c(=O)c34)nn2)CC1` [Compound 04H02, O=C1NC=NC=2NC=C(C=3N=NN(C3)C4(C(=O)N)CC4)C12], 33%. As to `O=c1[nH]cnc2[nH]cc(-c3cn(C4(c5ccc(F)cc5)CCOCC4)nn3)c12` [Compound 02C10, Fc1ccc(cc1)C2(N3N=NC(C=4C=5C(=O)NC=NC5NC4)=C3)CCOCC2], the inhibition at 1 µM turned out to be 6%.

Take `O=c1[nH]cnc2[nH]cc(-c3cn(CCN4CCOCC4)nn3)c12` [Compound 01E07, O=C1NC=NC=2NC=C(C=3N=NN(C3)CC[NH+]4CCOCC4)C12]: the inhibition at 1 µM amounted to 34%. For `CC(C)(C)OC(=O)N[C@@]12CC[C@@H](C[C@H]1n1cc(-c3c[nH]c4nc[nH]c(=O)c34)nn1)C2` [Compound 02G08, O=C(OC(C)(C)C)N[C@@]12[C@H](N3N=NC(C=4C=5C(=O)NC=NC5NC4)=C3)C[C@@H](C1)CC2], the inhibition at 1 µM came out at 12%. For the compound `O=c1[nH]cnc2[nH]cc(-c3cn(-c4cccc5c4CCCC5)nn3)c12` [Compound 02A11, O=C1NC=NC=2NC=C(C=3N=NN(c4c5c(ccc4)CCCC5)C3)C12], the inhibition at 1 µM worked out at 14%. In the case of `O=c1[nH]cnc2[nH]cc(-c3cn(C4CCOCC4)nn3)c12` [Compound 02B04, O=C1NC=NC=2NC=C(C=3N=NN(C3)C4CCOCC4)C12], the inhibition at 1 µM came to 10%.

Regarding `Cc1cc(F)ccc1[C@H](C)n1cc(-c2c[nH]c3nc[nH]c(=O)c23)nn1` [Compound 03F07, Fc1cc(c(cc1)[C@@H](N2N=NC(C=3C=4C(=O)NC=NC4NC3)=C2)C)C], the inhibition at 1 µM turned out to be 51%.

Regarding `O=c1[nH]cnc2[nH]cc(-c3cn(-c4cccc(Cl)c4-c4nnn[nH]4)nn3)c12` [Compound 02G02, Clc1c(c(N2N=NC(C=3C=4C(=O)NC=NC4NC3)=C2)ccc1)C=5[N-]N=NN5], the inhibition at 1 µM was 15%. Under `Cc1ccc(O)c(Cn2cc(-c3c[nH]c4nc[nH]c(=O)c34)nn2)n1` [Compound 02C01, O=C1NC=NC=2NC=C(C=3N=NN(C3)Cc4nc(ccc4O)C)C12] stands 32%; under `O=c1[nH]cnc2[nH]cc(-c3cn(C[C@H](O)Cc4cccc(F)c4)nn3)c12` [Compound 02H06, Fc1cc(ccc1)C[C@@H](O)CN2N=NC(C=3C=4C(=O)NC=NC4NC3)=C2], 27%. Under `COc1ccccc1[C@H](O)Cn1cc(-c2c[nH]c3nc[nH]c(=O)c23)nn1` [Compound 03G07, O=C1NC=NC=2NC=C(C=3N=NN(C3)C[C@@H](O)c4c(OC)cccc4)C12] stands 37%. In the case of `N[C@]12CC[C@](n3cc(-c4c[nH]c5nc[nH]c(=O)c45)nn3)(CC1)C2` [Compound 02D10, O=C1NC=NC=2NC=C(C=3N=NN(C3)[C@]45C[C@]([NH3+])(CC4)CC5)C12], the inhibition at 1 µM was found to be 11%. As for `Cc1cc(Cn2cc(-c3c[nH]c4nc[nH]c(=O)c34)nn2)no1` [Compound 03F02, O=C1NC=NC=2NC=C(C=3N=NN(C3)CC4=NOC(=C4)C)C12], the inhibition at 1 µM was determined as 35%. As to `COCc1cccc(-n2cc(-c3c[nH]c4nc[nH]c(=O)c34)nn2)c1` [Compound 01C07, O=C1NC=NC=2NC=C(C=3N=NN(c4cc(ccc4)COC)C3)C12], the inhibition at 1 µM was found to be 17%. Under `Nc1ccc(Cl)c(-n2cc(-c3c[nH]c4nc[nH]c(=O)c34)nn2)c1` [Compound 02E08, Clc1c(N2N=NC(C=3C=4C(=O)NC=NC4NC3)=C2)cc(N)cc1] stands 13%; under `CC(C)(C)O[C@H]1C[C@@H](n2cc(-c3c[nH]c4nc[nH]c(=O)c34)nn2)C1` [Compound 02F01, O=C1NC=NC=2NC=C(C=3N=NN(C3)[C@@H]4C[C@H](OC(C)(C)C)C4)C12], 21%.

The values are drawn from publication PMC12751012, “Nanoscale Direct-to-Biology Optimization and Structural Insights into Selective S. aureus TrmD Inhibitors” (Journal of Medicinal Chemistry, 2025).
